From the NIST ThermoML archive (doi:10.1021/acs.jced.5b00662)

Assay: xn = mol fraction of the nth substance listed
Settings: 100 kPa, Liquid; for speed of sound: Sing-around technique in a fixed-path interferometer; for mass density: Vibrating tube method

CCOCCOCCO [3,6-dioxa-1-octanol] + O
Settings | mass density, x1 = 0.9674 [kg/m3] | mass density, x1 = 0.974 [kg/m3] | mass density, x1 = 0.9826 [kg/m3] | mass density, x1 = 0.9887 [kg/m3] | mass density, x1 = 0.9899 [kg/m3] | speed of sound, x1 = 0.9674 [m/s] | speed of sound, x1 = 0.974 [m/s] | speed of sound, x1 = 0.9826 [m/s] | speed of sound, x1 = 0.9887 [m/s] | speed of sound, x1 = 0.9899 [m/s]
283.15 K | 997.734 | 997.587 | 997.387 | 997.339 | 997.227 | 1430.8 | 1430.3 | 1429.4 | 1429.6 | 1429.6
288.15 K | 993.31 | 993.16 | 992.963 | 992.908 | 992.793 | 1412.8 | 1412.2 | 1411.4 | 1411.4 | 1411.2
293.15 K | 988.877 | 988.725 | 988.528 | 988.475 | 988.357 | 1394.9 | 1394.3 | 1393.5 | 1393.6 | 1393.3
298.15 K | 984.434 | 984.285 | 984.088 | 984.028 | 983.913 | 1377.3 | 1376.5 | 1375.7 | 1375.7 | 1375.4
303.15 K | 979.981 | 979.829 | 979.636 | 979.572 | 979.459 | 1359.6 | 1358.8 | 1358 | 1357.9 | 1357.5
308.15 K | 975.514 | 975.363 | 975.164 | 975.102 | 974.991 | 1342 | 1341.3 | 1340.5 | 1340.1 | 1340
313.15 K | 971.029 | 970.88 | 970.684 | 970.62 | 970.511 | 1324.4 | 1323.9 | 1323.1 | 1322.7 | 1322.5
323.15 K | 962.022 | 961.873 | 961.673 | 961.608 | 961.499 | 1289.8 | 1289.3 | 1288.5 | 1287.9 | 1287.8
333.15 K | 952.945 | 952.794 | 952.591 | 952.534 | 952.422 | 1255.6 | 1255 | 1254.2 | 1253.7 | 1253.5
343.15 K | 943.775 | 943.629 | 943.425 | 943.381 | 943.264 | 1221.7 | 1221.1 | 1220.3 | 1220 | 1219.7

COCCOCCO [2-(2-methoxyethoxy)ethanol] + O
Settings | mass density [kg/m3] | speed of sound [m/s]
283.15 K, x1 = 0.9373 | – | 1473.4
283.15 K, x1 = 0.9483 | 1029.62 | 1472.6
283.15 K, x1 = 0.9601 | 1029.5 | 1471.2
283.15 K, x1 = 0.9674 | 1029.29 | 1470.8
283.15 K, x1 = 0.9893 | 1028.84 | 1468.4
283.15 K, x1 = 0.9932 | 1028.73 | 1468.6
288.15 K, x1 = 0.9373 | – | 1455.8
288.15 K, x1 = 0.9483 | 1025.24 | 1455.1
288.15 K, x1 = 0.9601 | 1025.13 | 1453.9
288.15 K, x1 = 0.9674 | 1024.9 | 1453.3
288.15 K, x1 = 0.9893 | 1024.45 | 1451
288.15 K, x1 = 0.9932 | 1024.35 | 1451
293.15 K, x1 = 0.9373 | – | 1438.7
293.15 K, x1 = 0.9483 | 1020.87 | 1438
293.15 K, x1 = 0.9601 | 1020.74 | 1436.7
293.15 K, x1 = 0.9674 | 1020.52 | 1436.1
293.15 K, x1 = 0.9893 | 1020.06 | 1433.7
293.15 K, x1 = 0.9932 | 1019.95 | 1433.4
298.15 K, x1 = 0.9373 | – | 1421.6
298.15 K, x1 = 0.9483 | 1016.47 | 1420.8
298.15 K, x1 = 0.9601 | 1016.34 | 1419.5
298.15 K, x1 = 0.9674 | 1016.12 | 1418.9
298.15 K, x1 = 0.9893 | 1015.65 | 1416.4
298.15 K, x1 = 0.9932 | 1015.55 | 1416.1
303.15 K, x1 = 0.9373 | – | 1404.5
303.15 K, x1 = 0.9483 | 1012.06 | 1403.6
303.15 K, x1 = 0.9601 | 1011.93 | 1402.3
303.15 K, x1 = 0.9674 | 1011.71 | 1401.7
303.15 K, x1 = 0.9893 | 1011.24 | 1399.1
303.15 K, x1 = 0.9932 | 1011.12 | 1398.9
308.15 K, x1 = 0.9373 | – | 1387.3
308.15 K, x1 = 0.9483 | 1007.63 | 1386.5
308.15 K, x1 = 0.9601 | 1007.5 | 1385.1
308.15 K, x1 = 0.9674 | 1007.28 | 1384.5
308.15 K, x1 = 0.9893 | 1006.8 | 1381.9
308.15 K, x1 = 0.9932 | 1006.69 | 1381.6
313.15 K, x1 = 0.9373 | – | 1370.3
313.15 K, x1 = 0.9483 | 1003.19 | 1369.4
313.15 K, x1 = 0.9601 | 1003.06 | 1368.1
313.15 K, x1 = 0.9674 | 1002.83 | 1367.5
313.15 K, x1 = 0.9893 | 1002.35 | 1364.9
313.15 K, x1 = 0.9932 | 1002.24 | 1364.6
323.15 K, x1 = 0.9373 | – | 1336.5
323.15 K, x1 = 0.9483 | 994.251 | 1335.6
323.15 K, x1 = 0.9601 | 994.119 | 1334.3
323.15 K, x1 = 0.9674 | 993.893 | 1333.7
323.15 K, x1 = 0.9893 | 993.397 | 1330.9
323.15 K, x1 = 0.9932 | 993.288 | 1330.3
333.15 K, x1 = 0.9373 | – | 1302.9
333.15 K, x1 = 0.9483 | 985.224 | 1302.1
333.15 K, x1 = 0.9601 | 985.089 | 1300.7
333.15 K, x1 = 0.9674 | 984.87 | 1300.2
333.15 K, x1 = 0.9893 | 984.365 | 1297.3
333.15 K, x1 = 0.9932 | 984.259 | 1296.7
343.15 K, x1 = 0.9373 | – | 1269.6
343.15 K, x1 = 0.9483 | 976.029 | 1268.8
343.15 K, x1 = 0.9601 | 975.972 | 1267.4
343.15 K, x1 = 0.9674 | 975.754 | 1266.9
343.15 K, x1 = 0.9893 | 975.241 | 1263.9
343.15 K, x1 = 0.9932 | 975.146 | 1263.3
